# Experiments:
# Staphylococcus aureus [1] = test: Antibacterial activity against Staphylococcus aureus ATCC 29737 incubated for 24 hrs; type: functional
# Pseudomonas fluorescens = test: Antibacterial activity against Pseudomonas fluorescens NCIM 2173 incubated for 24 hrs; type: functional
# Proteus vulgaris = test: Antibacterial activity against Proteus vulgaris ATCC 3851 incubated for 24 hrs by broth dilution method; type: functional
# Micrococcus luteus [2] = test: Antibacterial activity against Micrococcus luteus IFC 12708 incubated for 24 hrs by broth dilution method; type: functional
# Bacillus cereus [3] = test: Antibacterial activity against Bacillus cereus RCMB-010067 assessed as diameter of inhibition zone at 5 mg/ml by diffusion technique; type: functional; conditions: read-out: IZ
# Staphylococcus aureus [4] = test: Antibacterial activity against Staphylococcus aureus RCMB-010010 assessed as diameter of inhibition zone at 5 mg/ml by diffusion technique; type: functional; conditions: read-out: IZ
# Bacillus cereus [5] = test: Antibacterial activity against Bacillus cereus ATCC 6630 incubated for 24 hrs; type: functional
# Bacillus spizizenii = test: Antibacterial activity against Bacillus subtilis ATCC 6633 incubated for 24 hrs by broth dilution method; type: functional
# [6] = test system: Sphingomonas paucimobilis; test: Antibacterial activity against Flavobacterium devorans ATCC 10829 incubated for 24 hrs; type: functional
# Micrococcus luteus [7] = test: Antibacterial activity against Micrococcus Luteus ATCC 398 incubated for 24 hrs; type: functional
# Escherichia coli = test: Antibacterial activity against Escherichia coli ATCC 25922 incubated for 24 hrs by broth dilution method; type: functional
# Salmonella typhimurium = test: Antibacterial activity against Salmonella typhimurium ATCC 14028 incubated for 24 hrs by broth dilution method; type: functional, Salmonella enterica subsp. enterica serovar Typhimurium; conditions: Salmonella enterica
# Staphylococcus aureus [8] = test: Antibacterial activity against Staphylococcus aureus ATCC 6538p incubated for 24 hrs by broth dilution method; type: functional
structure (smiles),measurement,setting,value
CC1(C)S[C@@H]2[C@H](NC(=O)[C@H](N)c3ccccc3)C(=O)N2[C@H]1C(=O)O [AMPICILLIN],MIC,Staphylococcus aureus [1],2 µg/mL
same,MIC,Pseudomonas fluorescens,2 µg/mL
same,MIC,Proteus vulgaris,1.56 µg/mL
same,MIC,Micrococcus luteus [2],1.56 µg/mL
same,zone of inhibition at 5000 µg/mL,Bacillus cereus [3],23.8 mm
same,zone of inhibition at 5000 µg/mL,Staphylococcus aureus [4],32.4 mm
same,MIC,Bacillus cereus [5],2 µg/mL
same,MIC,Bacillus spizizenii,1.56 µg/mL
same,MIC,[6],2 µg/mL
same,MIC,Micrococcus luteus [7],2 µg/mL
same,MIC,Escherichia coli,1.56 µg/mL
same,MIC,Salmonella typhimurium,1.56 µg/mL
same,MIC,Staphylococcus aureus [8],1.56 µg/mL

# Source: ChEMBL document CHEMBL4699440, “Comprehensive review on the anti-bacterial activity of 1,2,3-triazole hybrids” (Eur J Med Chem, 2019)
